# Where two headings read alike, the source gives them in different places.
# Tests used:
# Type in all cases: cell-based
# [1] = target: T1, GATA4–NKX2-5 transcriptional synergy (Mus musculus, UniProt P42582+Q08369); test: GATA4–NKX2-5 transcriptional synergy luciferase reporter assay (3xNKE reporter, COS-1 cells); conditions: for activity at 10 µM / activity at 3 µM: COS-1; for Synergy (% of control) Mean ± SD: 10 μM, COS-1 cells, 24 h
# T1 construct: expressed in transfected cells; host or cells: COS-1
# [2] = target: T2, NKX2-5 transcriptional activity (Mus musculus, UniProt P42582); test: NKX2-5 luciferase reporter assay (3xNKE reporter, COS-1 cells); conditions: for activity at 3 µM: COS-1, read-out: NKX.3µM
# T2 construct: expressed in transfected cells; host or cells: COS-1
# [3] = target: T3, GATA4 transcriptional activity (Mus musculus, UniProt Q08369); test: GATA4 luciferase reporter assay (tandem GATA-site reporter, COS-1 cells); conditions: for activity at 3 µM: COS-1; for GATA4 (% of control) Mean ± SD: 10 μM, COS-1 cells, 24 h
# T3 construct: expressed in transfected cells; host or cells: COS-1
# [4] = 10 µM, luciferase reporter activity relative to control
# [5] = 3 µM, luciferase reporter activity relative to control
# [6] = 3 µM, luciferase reporter activity, % of control
# T3 sequence (Q08369 whole entry): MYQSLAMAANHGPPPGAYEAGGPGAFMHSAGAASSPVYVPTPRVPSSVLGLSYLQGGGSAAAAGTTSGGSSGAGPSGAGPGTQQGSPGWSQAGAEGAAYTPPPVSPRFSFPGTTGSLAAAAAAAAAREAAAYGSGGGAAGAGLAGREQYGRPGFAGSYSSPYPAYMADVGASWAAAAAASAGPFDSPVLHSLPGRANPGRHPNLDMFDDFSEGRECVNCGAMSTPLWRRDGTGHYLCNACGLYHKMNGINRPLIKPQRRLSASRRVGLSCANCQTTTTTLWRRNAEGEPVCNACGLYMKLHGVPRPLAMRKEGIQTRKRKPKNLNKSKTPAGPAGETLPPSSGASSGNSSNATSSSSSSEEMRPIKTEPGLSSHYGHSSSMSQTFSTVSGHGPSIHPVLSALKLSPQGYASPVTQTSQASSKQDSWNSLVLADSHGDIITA
# T1 sequence (Q08369 whole entry): as above
# T1 sequence (P42582 whole entry): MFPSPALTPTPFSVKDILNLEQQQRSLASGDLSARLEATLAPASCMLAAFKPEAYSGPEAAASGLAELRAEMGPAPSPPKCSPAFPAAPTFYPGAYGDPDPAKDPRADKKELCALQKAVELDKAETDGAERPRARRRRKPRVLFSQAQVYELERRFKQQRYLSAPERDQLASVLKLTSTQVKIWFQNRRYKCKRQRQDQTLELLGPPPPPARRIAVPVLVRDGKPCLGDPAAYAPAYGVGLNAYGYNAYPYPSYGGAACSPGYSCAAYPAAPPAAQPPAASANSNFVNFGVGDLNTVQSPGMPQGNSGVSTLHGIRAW
# T2 sequence (P42582 whole entry): as above
compound,measurement,setting,value
CCC(=O)N(Cc1ccc(N(CC)CC)cc1)c1c(-c2ccccc2)noc1C [Compound 58],activity at 10 µM,[1]; [4],22.3%
same,activity at 3 µM,[2]; [5],73.7%
same,activity at 3 µM,[3]; [5],70.3%
"CCN(CC)c1ccc(NC(=O)c2c(-c3ccccc3)noc2C)cc1 [Compound 1, N-[4-(Diethylamino)phenyl]-5-methyl-3-phenylisoxazole-4-carboxamide]",activity at 3 µM,[1]; [6],73.7%
same,activity at 3 µM,[2]; [6],76%
same,activity at 3 µM,[3]; [6],92.1%
"Cc1onc(-c2ccccc2)c1COc1ccc(C(=O)OCCC#N)cc1 [Compound 35a, 2-Cyanoethyl 4-[(5-Methyl-3-phenylisoxazol-4-yl)methoxy]benzoate]",activity at 3 µM,[1]; [5],27.5%
same,activity at 3 µM,[2]; [5],39.5%
same,activity at 3 µM,[3]; [5],46.9%
"N-[4-(Diethylamino)phenyl]-3-methyl-5-(4-methyl-1,2,3-thiadiazol-5-yl)isoxazole-4-carboxamide [Compound 47c]",Synergy.3µM,[1]; [5],45.37
same,Synergy (% of control) Mean ± SD,[1],24 ± 0.9 % of control
same,Synergy.10µM,[1]; [4],23.55
same,NKX.3µM,[2]; [5],33.64
same,NKX2-5 (% of control) Mean ± SD,"[2]; 10 μM, COS-1 cells, 24 h",21 ± 0.88 % of control
same,NKX.10µM,[2]; [4],20.92
same,GATA.3µM,[3]; [5],61.94
same,GATA4 (% of control) Mean ± SD,[3],68 ± 9.1 % of control
same,GATA.10µM,[3]; [4],68.28
COc1ccc(-c2cc(NC(=O)c3ccc(C(C)(C)C)cc3)n[nH]2)cc1 [Compound 72],effect on GATA4–NKX2-5 transcriptional synergy (in words),[1],inhibition potency
same,activity at 3 µM,[1]; [5],66%
same,activity at 10 µM,[1]; [4],49.5%
same,activity at 3 µM,[2]; [5],74.8%
same,GATA4 (% of control) Mean ± SD,[3],40 % of control
same,activity at 3 µM,[3]; [5],70.5%
Cc1onc(-c2ccccc2)c1C(=O)N(C1=NC(C)CS1)c1ccc(Cl)cc1 (centres unmarked) [Compound 2],Synergy (% of control) Mean ± SD,[1],170 % of control
same,activity at 3 µM,[1]; [6],130%
same,activity at 10 µM,"[1]; 10 µM, luciferase reporter activity, % of control",166%
same,activity at 3 µM,[2]; [6],102%
same,activity at 3 µM,[3]; [6],145%
CCN(CC)c1ccc(NC(=O)c2cnsc2)cc1 [Compound 47s],activity at 3 µM,[1]; [5],66.9%
same,activity at 3 µM,[2]; [5],41.8%
same,activity at 3 µM,[3]; [5],128%

# Source: publication PMC7076710, “Synthesis, Identification, and Structure–Activity Relationship Analysis of GATA4 and NKX2-5 Protein–Protein Interaction Modulators” (Journal of Medicinal Chemistry, 2019)
